Legend:
Format in all cases: in vivo, mouse
[1] = test system: MCP-1, TNF-α, and IFN-γ in blood sera; assay: ELISA of inflammation markers in blood sera; conditions: ELISA 28 days after bone marrow transplantation; PBA-treated vs vehicle-treated mice, n=4, P<0.05
Procedure: (§1) Bone marrow transplantation was performed as described in the above section “Bone marrow transplantation,” and the resulting allogeneic bone marrow transplantation recipient mice were divided into two groups. One group was treated with intraperitoneal injection of PBA (10 mg/kg) (Aldrich) while the other was treated with intraperitoneal injection of a solvent vehicle⋅phosphate buffered saline (PBS) (pH 7.4). The allogeneic bone marrow transplantation recipients received once-daily administration of PBA or the solvent vehicle from Day 10 to Day 27 after bone marrow transplantation. They were sacrificed on Day 28 after bone marrow transplantation.
Blood samples were withdrawn from PBA-treated mice and vehicle-treated mice, and centrifuged at 4000 rpm for 10 minutes. The levels of MCP-1, tumor necrosis factor-α (TNF-α), and interferon-γ (IFN-γ) in the resulting blood sera were measured using ELISA kits (Becton Dickinson). These assays were performed according to the protocol recommended by manufacturer Becton Dickinson.

[2] = test system: endoplasmic reticulum stress markers and related inflammation markers in cGVHD target organs; assay: Immunoblot analysis of endoplasmic reticulum stress markers and related inflammation markers in cGVHD target organs; conditions: n=4
Procedure: as §1
cGVHD-affected organs (exorbital lacrimal gland, proximal portion of the small intestine, dorsal skin, liver, salivary gland, lung, large intestine, and eyes) were analyzed herein.
Tissues of interest were each placed into an Eppendorf tube, and a pre-cooled RIPA buffer solution was then added to the tube. Subsequently, the tissues were each homogenized with an electric homogenizer. Samples were each allowed to stand on ice for 1 hour, and then centrifuged at 15000 rpm for 5 minutes at 4° C. Then, the supernatants were each collected in a fresh tube on ice, and used as a cell lysate. The cell lysates each received the same amount of a 5×Laemmli buffer solution, and each was heated at 100° C. for 5 minutes to denature proteins.
An aliquot of each sample having the same amount of proteins was loaded into a well of an SDS-PAGE gel, and then […]. Proteins were transferred from the gel to a membrane at 15 V for 20 minutes. The membrane was blocked at room temperature for 1 hour with 5% skim milk or 5% BSA (bovine serum albumin) in 1×TBST (a mixture of Tris-buffered saline and Tween 20). Subsequently, the membrane was incubated with a primary antibody at 4° C. overnight. The above primary antibody was diluted 1000 times with 5% skim milk or 5% BSA in 1×TBST. After incubation with the primary antibody, the membrane was washed with 1×TBST (3×10 minutes), and subjected to a secondary antibody at room temperature for 1 hour, and then washed with 1×TBST (3×10 minutes) and 1×TBS (2×10 minutes).
Proteins of interest were visualized by either one of the following two methods. (1) A target protein was colorimetrically detected using a BCIP/NBT substrate (Promega). (2) A signal was developed with an enhanced chemiluminescence (ECL) detection reagent (GE Healthcare), and a target protein was then visualized with an LAS4000 mini chemiluminescence imaging system (FUJIFILM Corporation/GE Healthcare).
The intensity of the resulting protein band was analyzed using image processing software ImageJ. Primary antibodies used in the experiments were GRP78 (Abcam), phospho-PERK (Thr980; Cell Signaling Technology Inc.), PERK (C33E10; Cell Signaling Technology Inc.), phosphor-IRE1α (Thermo Fisher Sceientific), IRE1α (14C10; Cell Signaling Technology Inc.), phosphor-eIF2α (119A11; Cell Signaling Technology Inc.), eIF2α (Cell Signaling Technology Inc.), CHOP (9C8; Thermo Fisher Scientific), TXNIP (D5F3E, Cell Signaling Technology Inc.), NF-κB (Abcam), HSP47 (SPA-470; Stress-Gen Biotechnologies Corp.), CTGF (Abcam), and β-actin (AC-15; Abcam).
With regard to the secondary antibody, (1) either AP-conjugated anti-mouse IgG antibody (Promega) or AP-conjugated anti-rabbit IgG antibody (Promega) was used when protein bands were chromogenically visualized; (2) HRP-conjugated anti-mouse antibody (Thermo Fisher Scientific) or HRP-conjugated anti-rabbit antibody (Thermo Fisher Scientific) was used when target proteins were detected by ECL.

[3] = test system: cGVHD model mice (B10.D2 to BALB/c bone marrow transplantation); assay: Survival and change in weight of PBA-treated allogeneic bone marrow transplantation recipient mice; conditions: PBA 10 mg/kg i.p. once daily Day 10 to Day 27 after allogeneic bone marrow transplantation
Procedure: Bone marrow transplantation was performed on model mice of cGVHD (Zhang Y, McCormick L L, Desai S R, Wu C, Gilliam A C, Murine Sclerodermatous Graft-Versus-Host Disease, a Model for Human Scleroderma: Cutaneous Cytokines, Chemokines, and Immune Cell Activation. The Journal of Immunology, 2002; 168: 3088-3098). When a donor was a B10.D2 mouse and a recipient was a BALB/c mouse, bone marrow transplantation was allogeneic, producing a model mouse of cGVHD. […] Recipients were irradiated at 700 cGy before bone marrow transplantation to perform lethal irradiation with a Gammacel 137 Cs source (Hitachi Medical Corp.). The recipient mice were each administered via tail vein with a suspension containing 1×10^6 donor bone marrow cells and 2×10^6 donor spleen cells.
Bone marrow transplantation was performed as described in the above section “Bone marrow transplantation,” and the resulting allogeneic bone marrow transplantation recipient mice were divided into two groups. One group was treated with intraperitoneal injection of PBA (10 mg/kg) (Aldrich) while the other was treated with intraperitoneal injection of a solvent vehicle⋅phosphate buffered saline (PBS) (pH 7.4). […]
Statistical significance was determined by the Mann-Whitney U test (which tests difference between two groups that have no correspondence). […]

[4] = PBA-treated vs vehicle-treated organs
[5] = organs of PBA-treated (10 mg/kg i.p.) vs vehicle-treated cGVHD mice

Q: With `O=C(O)CCCc1ccccc1` [PBA, 4-phenyl-n-butyric acid] as the compound, how does the “protein level of IFN-γ in blood sera” value [1] read?
A: The value was “lower protein levels”.

Q: And the “protein level of MCP-1 in blood sera” value [1]?
A: The value was “lower protein levels”.

Q: And the “protein level of TNF-α in blood sera” value [1]?
A: Its value is “lower protein levels”.

Q: And the “proinflammatory molecule NF-κB in organs” value [2, 4]?
A: The value was “inhibited”.

Q: What about the “proinflammatory molecule TXNIP in organs” value [2, 4] of the same compound?
A: Its value is “inhibited”.

Q: What about the “protein level of CHOP in organs” value [2, 5] of the same compound?
A: Its value is “lower protein levels”.

Q: And the “protein level of GRP78 in organs” value [2, 5]?
A: Its value is “lower protein levels”.

Q: What about the “protein level of p-IRE1α in organs” value [2, 5] of the same compound?
A: The value was “lower protein levels”.

Q: And the “protein level of p-PERK in organs” value [2, 5]?
A: The value was “lower protein levels”.

Q: What about the “protein level of p-eIF2α in organs” value [2, 5] of the same compound?
A: The value was “lower protein levels”.

Q: And the “% survival” value ([3]; vs vehicle (PBS), FIG. 2A, n=14, P<0.05)?
A: Its value is “higher survival percentage”.

Q: And the change in weight ([3]; vs vehicle, FIG. 2B, n=10, P<0.001)?
A: Its change in weight is “the vehicle-treated mouse group showed larger weight loss as compared with the PBA-treated mouse group”.

Source: patent US20190192458A1, “THERAPEUTIC/PROPHYLACTIC AGENT FOR GRAFT-VERSUS-HOST DISEASE, FIBROCYTE INVASION INHIBITOR, AND INHIBITOR AGAINST TEAR REDUCTION AND REDUCTION IN GOBLET CELLS” (KEIO UNIVERSITY, priority 2016, published 2019)
